From US6355799B1, “Substituted benzene compounds, process for their preparation, and herbicidal and defoliant compositions containing them” (ISK Americas Incorporated, priority 1997, dated 2002)

Columns and labels:
Type in all cases: in vivo
[1] = tested on: redroot pigweed (Amaranthus retroflexus, AMARE); assay: Pre-emerge test, greenhouse herbicide activity screening; conditions: pre-emerge, 14 days after application, scale 0-100
In short: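 Herbicidal damage is scored 0 (none) to 100 (complete plant death) two weeks after a simulated field spray. Rates span 15–1000 g ai/ha, delivered in acetone at 187 l/ha. For post-emergence treatments, plants have 2–3 leaves and the spray carries 0.25% v/v non-ionic surfactant.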

[2] = tested on: lambsquarters (Chenopodium album, CHEAL); assay: as above; conditions: pre-emerge, 14 days after application, scale 0-100
In short: (§1)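 Rating: 0–100 visual injury, 14 DAA. Application: acetone, 187 l/ha, 15–1000 g ai/ha, flat-fan track sprayer with nozzle 40–45 cm above soil or canopy. Post-emerge runs used 0.25% v/v surfactant on 2–3 leaf plants.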

[3] = tested on: sicklepod (Cassia obtusifolia, CASOB); assay: as above; conditions: pre-emerge, 14 days after application, scale 0-100
In short: as §1

[4] = tested on: johnsongrass (Sorghum halepense, SORHA); assay: as above; conditions: pre-emerge, 14 days after application, scale 0-100
In short: as §1

[5] = tested on: barnyardgrass (Echinochloa crus-galli, ECHCG); assay: as above; conditions: pre-emerge, 14 days after application, scale 0-100
In short: as §1

[6] = tested on: velvetleaf (Abutilon theophrasti, ABUTH); assay: as above; conditions: pre-emerge, 14 days after application, scale 0-100
In short: as §1

[7] = tested on: large crabgrass (Digitaria sanguinalis, DIGSA); assay: as above; conditions: pre-emerge, 14 days after application, scale 0-100
In short: as §1

[8] = tested on: green foxtail (Setaria viridis, SETVI); assay: as above; conditions: pre-emerge, 14 days after application, scale 0-100
In short: as §1

[9] = tested on: common ragweed (Ambrosia artemisizfolia L., AMBEL); assay: as above; conditions: pre-emerge, 14 days after application, scale 0-100
In short: as §1

[10] = tested on: ivyleaf morningglory (Ipomoea hederacea, IPOHE); assay: as above; conditions: pre-emerge, 14 days after application, scale 0-100
In short: as §1

[11] = tested on: lambsquarters (Chenopodium album, CHEAL); assay: Post-emerge test, greenhouse herbicide activity screening; conditions: post-emerge, 14 days after application, rating scale 0-100
In short: (§2)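 Compounds in acetone were track-sprayed at 15-1000 g ai/ha (187 l/ha) on sandy loam pots: pre-emerge one day after seeding, post-emerge at 2-3 leaf stage with 0.25% v/v non-ionic surfactant. Phytotoxicity was rated 14 days later on a 0 (no damage) to 100 (complete death) scale.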

[12] = tested on: sicklepod (Cassia obtusifolia, CASOB); assay: as above; conditions: post-emerge, 14 days after application, rating scale 0-100
In short: as §2

[13] = tested on: redroot pigweed (Amaranthus retroflexus, AMARE); assay: as above; conditions: post-emerge, 14 days after application, rating scale 0-100
In short: as §2

[14] = tested on: johnsongrass (Sorghum halepense, SORHA); assay: as above; conditions: post-emerge, 14 days after application, rating scale 0-100
In short: as §2

[15] = tested on: barnyardgrass (Echinochloa crus-galli, ECHCG); assay: as above; conditions: post-emerge, 14 days after application, rating scale 0-100
In short: as §2

[16] = tested on: velvetleaf (Abutilon theophrasti, ABUTH); assay: as above; conditions: post-emerge, 14 days after application, rating scale 0-100
In short: as §2

[17] = tested on: large crabgrass (Digitaria sanguinalis, DIGSA); assay: as above; conditions: post-emerge, 14 days after application, rating scale 0-100
In short: as §2

[18] = tested on: green foxtail (Setaria viridis, SETVI); assay: as above; conditions: post-emerge, 14 days after application, rating scale 0-100
In short: as §2

[19] = tested on: ivyleaf morningglory (Ipomoea hederacea, IPOHE); assay: as above; conditions: post-emerge, 14 days after application, rating scale 0-100
In short: as §2

[20] = tested on: upland rice (Oryza sp., var. Tebonnet, RICE); assay: Pre-emerge test, crop safety; conditions: pre-emerge, 14 days after application, scale 0-100
In short: (§3)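 Sandy loam pots; pre-emerge: sown 1 d pre-spray, surface-watered after, then bottom-watered. Post-emerge: sown 8–21 d before, 2–3 leaf stage, + 0.25% v/v NIS, bottom-watered. Acetone, 187 l/ha track spray, 15–1000 g ai/ha. 0–100 injury score, day 14.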

[21] = tested on: field corn (Zea mays L., var. Dekalb 535, CORN); assay: Pre-emerge test, crop safety; conditions: pre-emerge, 14 days after application, scale 0-100
In short: as §3

[22] = tested on: upland rice (Oryza sp., var. Tebonnet, RICE); assay: Post-emerge test, crop safety; conditions: post-emerge, 14 days after application, rating scale 0-100
In short: (§4)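 Plants grown in 10 cm pots of sandy loam mix received acetone-dissolved compounds through a moving flat-fan nozzle. Doses ranged from 15 to 1000 g ai/ha. Pre-emerge pots were seeded one day earlier, post-emerge pots 8–21 days earlier. Fourteen days on, each pot was graded 0–100 for damage.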

[23] = tested on: field corn (Zea mays L., var. Dekalb 535, CORN); assay: Post-emerge test, crop safety; conditions: post-emerge, 14 days after application, rating scale 0-100
In short: as §4

## Cn1c(C(F)(F)F)cc(=O)n(-c2ccc(C(F)(F)F)cc2NC(=O)c2ccc3ccccc3c2)c1=O [2-149]
[1]; 63 g ai/ha
  phytotoxicity rating AMARE: 100
[1]; 250 g ai/ha
  phytotoxicity rating AMARE: 100
[2]; 63 g ai/ha
  phytotoxicity rating CHEAL: 100
[2]; 250 g ai/ha
  phytotoxicity rating CHEAL: 100
[3]; 63 g ai/ha
  phytotoxicity rating CASOB: 0
[3]; 250 g ai/ha
  phytotoxicity rating CASOB: 50
[4]; 63 g ai/ha
  phytotoxicity rating SORHA: 30
[4]; 250 g ai/ha
  phytotoxicity rating SORHA: 50
[5]; 63 g ai/ha
  phytotoxicity rating ECHCG: 50
[5]; 250 g ai/ha
  phytotoxicity rating ECHCG: 100
[6]; 63 g ai/ha
  phytotoxicity rating ABUTH: 99
[6]; 250 g ai/ha
  phytotoxicity rating ABUTH: 100
[7]; 63 g ai/ha
  phytotoxicity rating DIGSA: 90
[7]; 250 g ai/ha
  phytotoxicity rating DIGSA: 100
[8]; 63 g ai/ha
  phytotoxicity rating SETVI: 50
[8]; 250 g ai/ha
  phytotoxicity rating SETVI: 90
[9]; 63 g ai/ha
  phytotoxicity rating AMBEL: 0
[9]; 250 g ai/ha
  phytotoxicity rating AMBEL: 100
[10]; 63 g ai/ha
  phytotoxicity rating IPOHE: 30
[10]; 250 g ai/ha
  phytotoxicity rating IPOHE: 70
[11]; 63 g ai/ha
  CHEAL phytotoxicity rating: 90
[11]; 250 g ai/ha
  CHEAL phytotoxicity rating: 95
[12]; 63 g ai/ha
  CASOB phytotoxicity rating: 95
[12]; 250 g ai/ha
  CASOB phytotoxicity rating: 95
[13]; 63 g ai/ha
  AMARE phytotoxicity rating: 80
[13]; 250 g ai/ha
  AMARE phytotoxicity rating: 80
[14]; 63 g ai/ha
  SORHA phytotoxicity rating: 0
[14]; 250 g ai/ha
  SORHA phytotoxicity rating: 0
[15]; 63 g ai/ha
  ECHCG phytotoxicity rating: 20
[15]; 250 g ai/ha
  ECHCG phytotoxicity rating: 50
[16]; 63 g ai/ha
  ABUTH phytotoxicity rating: 100
[16]; 250 g ai/ha
  ABUTH phytotoxicity rating: 100
[17]; 63 g ai/ha
  DIGSA phytotoxicity rating: 0
[17]; 250 g ai/ha
  DIGSA phytotoxicity rating: 20
[18]; 63 g ai/ha
  SETVI phytotoxicity rating: 10
[18]; 250 g ai/ha
  SETVI phytotoxicity rating: 20
[19]; 63 g ai/ha
  IPOHE phytotoxicity rating: 70
[19]; 250 g ai/ha
  IPOHE phytotoxicity rating: 95
[20]; 63 g ai/ha
  phytotoxicity rating RICE (crop damage): 0
[20]; 250 g ai/ha
  phytotoxicity rating RICE (crop damage): 50
[21]; 63 g ai/ha
  phytotoxicity rating CORN (crop damage): 0
[21]; 250 g ai/ha
  phytotoxicity rating CORN (crop damage): 20
[22]; 63 g ai/ha
  RICE phytotoxicity rating (crop damage): 0
[22]; 250 g ai/ha
  RICE phytotoxicity rating (crop damage): 10
[23]; 63 g ai/ha
  CORN phytotoxicity rating (crop damage): 0
[23]; 250 g ai/ha
  CORN phytotoxicity rating (crop damage): 15

## COc1c(Cl)cc(F)c(-n2c(=O)cc(C(F)(F)F)n(C)c2=O)c1NC(=O)c1ccc2c(C#N)cccc2c1 [2-163]
[1]; 63 g ai/ha
  phytotoxicity rating AMARE: 100
[1]; 250 g ai/ha
  phytotoxicity rating AMARE: 100
[2]; 63 g ai/ha
  phytotoxicity rating CHEAL: 100
[2]; 250 g ai/ha
  phytotoxicity rating CHEAL: 100
[3]; 63 g ai/ha
  phytotoxicity rating CASOB: 10
[3]; 250 g ai/ha
  phytotoxicity rating CASOB: 60
[4]; 63 g ai/ha
  phytotoxicity rating SORHA: 0
[4]; 250 g ai/ha
  phytotoxicity rating SORHA: 30
[5]; 63 g ai/ha
  phytotoxicity rating ECHCG: 0
[5]; 250 g ai/ha
  phytotoxicity rating ECHCG: 75
[6]; 63 g ai/ha
  phytotoxicity rating ABUTH: 95
[6]; 250 g ai/ha
  phytotoxicity rating ABUTH: 100
[7]; 63 g ai/ha
  phytotoxicity rating DIGSA: 35
[7]; 250 g ai/ha
  phytotoxicity rating DIGSA: 100
[8]; 63 g ai/ha
  phytotoxicity rating SETVI: 60
[8]; 250 g ai/ha
  phytotoxicity rating SETVI: 95
[9]; 63 g ai/ha
  phytotoxicity rating AMBEL: 65
[9]; 250 g ai/ha
  phytotoxicity rating AMBEL: 95
[10]; 63 g ai/ha
  phytotoxicity rating IPOHE: 40
[10]; 250 g ai/ha
  phytotoxicity rating IPOHE: 95
[11]; 63 g ai/ha
  CHEAL phytotoxicity rating: 100
[11]; 250 g ai/ha
  CHEAL phytotoxicity rating: 100
[12]; 63 g ai/ha
  CASOB phytotoxicity rating: 90
[12]; 250 g ai/ha
  CASOB phytotoxicity rating: 90
[13]; 63 g ai/ha
  AMARE phytotoxicity rating: 100
[13]; 250 g ai/ha
  AMARE phytotoxicity rating: 100
[14]; 63 g ai/ha
  SORHA phytotoxicity rating: 0
[14]; 250 g ai/ha
  SORHA phytotoxicity rating: 10
[15]; 63 g ai/ha
  ECHCG phytotoxicity rating: 55
[15]; 250 g ai/ha
  ECHCG phytotoxicity rating: 70
[16]; 63 g ai/ha
  ABUTH phytotoxicity rating: 99
[16]; 250 g ai/ha
  ABUTH phytotoxicity rating: 100
[17]; 63 g ai/ha
  DIGSA phytotoxicity rating: 30
[17]; 250 g ai/ha
  DIGSA phytotoxicity rating: 45
[18]; 63 g ai/ha
  SETVI phytotoxicity rating: 50
[18]; 250 g ai/ha
  SETVI phytotoxicity rating: 60
[19]; 63 g ai/ha
  IPOHE phytotoxicity rating: 98
[19]; 250 g ai/ha
  IPOHE phytotoxicity rating: 95
[20]; 63 g ai/ha
  phytotoxicity rating RICE (crop damage): 0
[20]; 250 g ai/ha
  phytotoxicity rating RICE (crop damage): 30
[21]; 63 g ai/ha
  phytotoxicity rating CORN (crop damage): 0
[21]; 250 g ai/ha
  phytotoxicity rating CORN (crop damage): 0
[22]; 63 g ai/ha
  RICE phytotoxicity rating (crop damage): 20
[22]; 250 g ai/ha
  RICE phytotoxicity rating (crop damage): 55
[23]; 63 g ai/ha
  CORN phytotoxicity rating (crop damage): 35
[23]; 250 g ai/ha
  CORN phytotoxicity rating (crop damage): 40
